# Source: patent US12390435B2, “Electrophiles and electrophile pro-drugs as RAD51 inhibitors” (University of Pittsburgh—Of the Commonwealth System of …, priority 2018, dated 2025)
# How the values were obtained:
# [1] = system: NF-κB transcriptional activity; assay: NF-κB luciferase reporter; assay type: cell-based; settings: MDA-MB-231 and MDA-MB-468 cells, 5 μM 2 hr then TNFα 20 ng/mL 4 hr
# Protocol: Luciferase-chemiluminescence-based analysis of NF-κB transcriptional activity was performed. MDA-MB-231 and MDA-MB-468 cells (˜70% confluence) in 12-well plates were transiently transfected with a NF-κB-luciferase reporter plasmid (Stratagene, La Jolla, CA) with Lipofectamine 3000. […] Each transfection was performed in triplicate. Luciferase activity was measured using the Dual-luciferase assay kit (Promega). Relative light units (RLU) were measured using a 96-well plate luminometer, according to the manufacturer's instructions (Victor II, PerkinElmer Life Sciences). Protein concentration was determined using the BCA Assay (Thermo Fisher Scientific). Data represents the ratio of treated samples to controls in the context of mean RLU/protein content, +/−SD. Three individual experiments were done, and statistical significance was determined by Kruskal-Wallis test followed by Dunn's post-test with Bonferroni corrections for multiple comparisons.
# breast cancer cell = assay: Clonogenic assay after 2 Gy IR; assay type: cell-based; settings: increasing concentrations
# [2] = system: RAD51 foci in MDA-MB-231 cells; assay: RAD51 foci and γH2AX immunofluorescence after 5 Gy IR; assay type: cell-based
# Protocol: To analyze RAD51 foci formation, 10,000 cells were plated to CultureWell 16-well chambered cover glass (MIDSCI) coated with poly-L-lysine (Sigma) and incubated overnight in 5% FBS media. […] Cells were fixed with 10% formalin for 20 min at 4° C. and immunostained with RAD51 (Santa Cruz) or γH2AX (EMD Biosciences) antibodies. Z-stack images were acquired using a Nikon AIR confocal microscope with 60× oil objective and acquisition performed using NIS elements software. Quantification of z-stacks and foci were completed using ImageJ software.
# Data represent the mean±SEM from 3 independent experiments unless otherwise noted. A p value<0.05 was considered statistically significant. Non-linear curves were generated in GraphPad Prism 7.0 (GraphPad Software, La Jolla, CA, USA) for statistical analysis. EC50 values and standard error were calculated from three independent experiments utilizing a non-linear dose response variable slope model. Significance was tested by one-way ANOVA for multiple groups with Tukey posttest or by t-test when groups were less than three. RAD51 foci number was analyzed with ImageJ. Nuclear boundaries were individually identified in more than 50 cells per treatment group in three independent experiments.
# RelA = molecular target: T1, RelA (Homo sapiens, UniProt Q04206); assay: Biotinylated NO2-FA protein alkylation pull-down and proteomics; assay type: binding; settings: recombinant RelA protein
# T1 construct: endogenous in cells; host or cells: MDA-MB-231, MDA-MB-468
# T1 sequence (Q04206 whole entry): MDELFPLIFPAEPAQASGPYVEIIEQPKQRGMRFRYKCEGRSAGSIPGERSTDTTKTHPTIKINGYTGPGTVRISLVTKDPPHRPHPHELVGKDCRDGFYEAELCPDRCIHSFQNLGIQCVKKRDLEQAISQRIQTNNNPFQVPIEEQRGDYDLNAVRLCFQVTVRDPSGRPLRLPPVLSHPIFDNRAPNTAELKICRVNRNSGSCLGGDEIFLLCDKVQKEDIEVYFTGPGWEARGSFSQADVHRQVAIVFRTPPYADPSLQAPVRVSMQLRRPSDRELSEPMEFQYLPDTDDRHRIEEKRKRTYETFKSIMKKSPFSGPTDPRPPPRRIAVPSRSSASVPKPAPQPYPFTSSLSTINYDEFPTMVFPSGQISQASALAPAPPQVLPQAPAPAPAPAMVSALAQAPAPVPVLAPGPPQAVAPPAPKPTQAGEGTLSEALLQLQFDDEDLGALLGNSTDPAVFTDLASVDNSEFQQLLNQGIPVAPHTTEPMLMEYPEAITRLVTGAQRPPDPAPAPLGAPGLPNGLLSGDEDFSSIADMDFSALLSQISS
# Protocol: After 2 hr cells were harvested in lysis buffer containing 1% Triton X, 10% glycerol, 150 mM NaCl, 10 mM HEPES, 1 mM EDTA, 1 mM EGTA, and supplemented with a mixture of protease and phosphatase inhibitors (Roche Applied Science). Total cell lysates (0.5-1 mg) were mixed and incubated with streptavidin agarose beads (Sigma-Aldrich) at 4° C., overnight. Beads were washed three times using lysis buffer. After SDS-PAGE, immunoblotting was performed using anti-RelA mouse monoclonal antibody (Santa Cruz Biotechnology) or anti-IKKβ rabbit polyclonal antibody (Cell Signaling). Proteomics analysis for the alkylation of RelA by NO2-OA was also conducted using recombinant RelA protein and LC-MS/MS analysis.
# [3] = system: homologous recombination (DR-GFP, U2OS cells); assay: DR-GFP HR reporter assay in U2OS cells; assay type: cell-based
# Protocol: Measurements of NHEJ, HR, Alt-EJ and SSA assays were performed as previously described. HR activity was measured by counting GFP-positive cells by flow cytometry at the MWRI flow cytometry core using a BD LSRII (BD Biosciences). RAD51 overexpressing cells were generated by stable transfection of pLVX RAD51 IRES Neo and selection with geneticin (Invitrogen).
# U2OS cells were prepared as above, but 5 h following compound treatment, cells were transferred into the Incucyte Zoom (Essen) live-cell imaging automated fluorescence microscope at 37° C. with 5% CO2. Cell confluence and green object count per mm2 were determined using Incucyte Zoom software. Green object count per field was normalized to cell confluency to correct for NO2—OA-induced effects on cell proliferation.
# NO2-OA-dependent effects on HR DNA repair were further investigated by utilizing a DRGFP reporter assay. This analysis quantifies intracellular recombination of an integrated cDNA cassette of two tandem non-fluorescent GFP constructs following introduction of an I-SceI cleavage to the system by measuring the fluorescent GFP protein that is produced following successful recombination. […] A novel strategy was used to measure the kinetics of changes in HR in live cells by using automated fluorescence microscopy to track the emergence of GFP positive cells over time in monolayers, as opposed to making static measurements of detached cells using flow cytometry. […] This was indicated by an absence of changes in the number of GFP positive cells following I-SceI cleavage after 48 h by flow cytometric analysis or over 68 h by live-cell fluorescence microscopy (FIGS. 2C, 2D).
smiles,measurement,setting,value
"CCCCCCCCC(=CCCCCCCCC(=O)O)[N+](=O)[O-] [NO2-OA, 10-nitro-octadec-9-enoic acid]",NF-κB-dependent transcription of luciferase,[1],significantly inhibited
same,cell death in clonogenic assay,breast cancer cell,enhanced breast cancer cell death
same,RAD51 foci formation,"[2]; 5 μM, 6 h",inhibited RAD51 foci formation
same,nuclear γH2AX localization,[2]; versus vehicle,significantly increased nuclear γH2AX localization
same,RelA Cys105 alkylation (LC-MS/MS proteomics),RelA,alkylated
same,HR activity in RAD51 overexpressing versus control reporter cells,[3]; 5 μM NO2-OA,significantly increased
same,decrease in number of GFP-positive cells (HR),"[3]; daily 5 μM, over 68 h, live-cell microscopy",2 fold
same,decrease in number of GFP positive cells (HR),"[3]; daily NO2-OA, 48 h, flow cytometry, versus OA or vehicle",2 fold
